Source: ChEMBL document CHEMBL5104157, “Design, synthesis and biological evaluation of light-driven on-off multitarget AChE and MAO-B inhibitors” (RSC Med Chem, 2022)

Key:
Acetylcholinesterase = Acetylcholinesterase (Homo sapiens, UniProt P22303); assay: Inhibition of human serum recombinant AChE using acetylthiocholine iodide as a substrate incubated for 20 mins by DTNB reagent based Ellman's method; assay type: cell-free
[1] = target: Amyloid-beta precursor protein (Homo sapiens) (UniProt P05067); assay: Inhibition of amyloid beta (1 to 40) (unknown origin) self aggregation at 10 uM incubated for 2 hrs by ThT fluorescence assay
[2] = target: T1, MAO-A (amine oxidase [flavin-containing] A) (Homo sapiens, UniProt P21397); assay: Inhibition of human recombinant MAO-A assessed as reduction in 4-hydroxyquinoline level using kynuramine as a substrate at 10 uM preincubated for 5 mins followed by substrate addition by spectrofluorimetric analysis; settings: probe kynuramine
T1 sequence (P21397 whole entry): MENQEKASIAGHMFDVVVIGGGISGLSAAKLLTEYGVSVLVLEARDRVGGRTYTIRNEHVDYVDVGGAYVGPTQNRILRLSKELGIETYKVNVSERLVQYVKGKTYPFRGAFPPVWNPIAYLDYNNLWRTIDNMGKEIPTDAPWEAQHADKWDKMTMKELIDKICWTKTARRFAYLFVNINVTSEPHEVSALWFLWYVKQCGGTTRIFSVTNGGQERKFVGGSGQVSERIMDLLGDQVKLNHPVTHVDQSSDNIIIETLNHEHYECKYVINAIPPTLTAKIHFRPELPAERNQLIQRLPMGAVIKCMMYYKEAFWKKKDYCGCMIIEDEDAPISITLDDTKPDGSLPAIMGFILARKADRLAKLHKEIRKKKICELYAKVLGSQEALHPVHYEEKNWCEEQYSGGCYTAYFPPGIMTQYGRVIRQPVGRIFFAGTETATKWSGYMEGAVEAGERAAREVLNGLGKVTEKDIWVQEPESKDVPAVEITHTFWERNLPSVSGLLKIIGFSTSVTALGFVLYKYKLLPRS

[3] = target: Cholinesterase (Homo sapiens) (UniProt P06276); assay: Inhibition of human serum recombinant BChE using butyrylthiocholine iodide as a substrate at 10 uM incubated for 20 mins by DTNB reagent based Ellman's method; assay type: cell-free
[4] = target: T2, Amine oxidase [flavin-containing] B (Homo sapiens, UniProt P27338); assay: Inhibition of human recombinant MAO-B assessed as reduction in 4-hydroxyquinoline level using kynuramine as a substrate preincubated for 5 mins followed by substrate addition by spectrofluorimetric analysis
T2 sequence (P27338 whole entry): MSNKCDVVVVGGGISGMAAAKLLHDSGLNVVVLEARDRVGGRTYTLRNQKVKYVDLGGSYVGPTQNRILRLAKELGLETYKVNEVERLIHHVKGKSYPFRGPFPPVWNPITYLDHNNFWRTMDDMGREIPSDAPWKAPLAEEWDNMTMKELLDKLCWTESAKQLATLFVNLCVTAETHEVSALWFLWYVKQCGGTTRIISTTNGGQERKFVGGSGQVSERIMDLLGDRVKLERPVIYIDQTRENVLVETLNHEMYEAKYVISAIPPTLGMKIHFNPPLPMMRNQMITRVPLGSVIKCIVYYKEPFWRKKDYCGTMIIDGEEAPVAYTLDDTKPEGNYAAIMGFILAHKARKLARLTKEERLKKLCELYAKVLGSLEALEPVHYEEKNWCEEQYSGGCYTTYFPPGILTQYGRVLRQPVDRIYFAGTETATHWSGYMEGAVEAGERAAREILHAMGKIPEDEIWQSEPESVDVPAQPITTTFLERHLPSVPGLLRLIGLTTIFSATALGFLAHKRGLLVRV

[5] = target: T3, Amine oxidase [flavin-containing] A (Homo sapiens, UniProt P21397); assay: Inhibition of human recombinant MAO-A assessed as reduction in 4-hydroxyquinoline level using kynuramine as a substrate preincubated for 5 mins followed by substrate addition by spectrofluorimetric analysis
T3 sequence (P21397 whole entry): T1 sequence (P21397 whole entry)

Sequence of Amyloid-beta precursor protein (Homo sapiens) (P05067 whole entry): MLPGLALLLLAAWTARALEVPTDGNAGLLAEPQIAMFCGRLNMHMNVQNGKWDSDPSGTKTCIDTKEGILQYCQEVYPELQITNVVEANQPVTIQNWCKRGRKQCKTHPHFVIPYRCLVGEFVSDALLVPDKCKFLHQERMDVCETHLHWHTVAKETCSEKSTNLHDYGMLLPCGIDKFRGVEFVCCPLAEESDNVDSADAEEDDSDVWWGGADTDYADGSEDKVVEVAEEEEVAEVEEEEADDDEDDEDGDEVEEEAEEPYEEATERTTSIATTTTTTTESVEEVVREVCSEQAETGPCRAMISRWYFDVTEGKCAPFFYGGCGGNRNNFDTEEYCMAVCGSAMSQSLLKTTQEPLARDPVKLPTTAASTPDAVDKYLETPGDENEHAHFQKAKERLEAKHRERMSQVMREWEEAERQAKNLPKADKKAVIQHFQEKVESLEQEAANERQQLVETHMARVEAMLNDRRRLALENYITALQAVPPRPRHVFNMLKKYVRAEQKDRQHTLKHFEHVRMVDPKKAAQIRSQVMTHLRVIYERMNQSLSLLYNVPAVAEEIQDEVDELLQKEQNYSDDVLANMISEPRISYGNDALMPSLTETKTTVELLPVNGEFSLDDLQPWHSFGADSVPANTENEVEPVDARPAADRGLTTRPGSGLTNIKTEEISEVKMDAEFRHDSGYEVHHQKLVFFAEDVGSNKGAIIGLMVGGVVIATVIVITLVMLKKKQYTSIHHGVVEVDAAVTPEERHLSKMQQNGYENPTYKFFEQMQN
Sequence of Cholinesterase (Homo sapiens) (P06276 whole entry): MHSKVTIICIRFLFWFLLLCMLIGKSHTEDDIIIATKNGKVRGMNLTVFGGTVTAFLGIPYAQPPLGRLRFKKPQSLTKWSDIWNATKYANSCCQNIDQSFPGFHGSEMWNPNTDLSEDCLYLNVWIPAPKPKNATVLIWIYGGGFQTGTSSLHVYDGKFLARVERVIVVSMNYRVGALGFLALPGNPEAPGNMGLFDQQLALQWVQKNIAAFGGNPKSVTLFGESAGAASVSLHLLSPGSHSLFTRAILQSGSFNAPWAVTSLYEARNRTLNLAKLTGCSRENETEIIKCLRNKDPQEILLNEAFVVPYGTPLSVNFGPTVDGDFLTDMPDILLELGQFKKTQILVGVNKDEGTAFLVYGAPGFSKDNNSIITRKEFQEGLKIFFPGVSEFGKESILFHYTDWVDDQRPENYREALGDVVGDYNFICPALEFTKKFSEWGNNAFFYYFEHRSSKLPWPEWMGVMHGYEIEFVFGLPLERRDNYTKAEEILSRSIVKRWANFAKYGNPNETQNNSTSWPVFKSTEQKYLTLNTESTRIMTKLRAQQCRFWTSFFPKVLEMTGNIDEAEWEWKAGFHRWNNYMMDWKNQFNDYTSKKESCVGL
Sequence of Acetylcholinesterase (P22303 whole entry): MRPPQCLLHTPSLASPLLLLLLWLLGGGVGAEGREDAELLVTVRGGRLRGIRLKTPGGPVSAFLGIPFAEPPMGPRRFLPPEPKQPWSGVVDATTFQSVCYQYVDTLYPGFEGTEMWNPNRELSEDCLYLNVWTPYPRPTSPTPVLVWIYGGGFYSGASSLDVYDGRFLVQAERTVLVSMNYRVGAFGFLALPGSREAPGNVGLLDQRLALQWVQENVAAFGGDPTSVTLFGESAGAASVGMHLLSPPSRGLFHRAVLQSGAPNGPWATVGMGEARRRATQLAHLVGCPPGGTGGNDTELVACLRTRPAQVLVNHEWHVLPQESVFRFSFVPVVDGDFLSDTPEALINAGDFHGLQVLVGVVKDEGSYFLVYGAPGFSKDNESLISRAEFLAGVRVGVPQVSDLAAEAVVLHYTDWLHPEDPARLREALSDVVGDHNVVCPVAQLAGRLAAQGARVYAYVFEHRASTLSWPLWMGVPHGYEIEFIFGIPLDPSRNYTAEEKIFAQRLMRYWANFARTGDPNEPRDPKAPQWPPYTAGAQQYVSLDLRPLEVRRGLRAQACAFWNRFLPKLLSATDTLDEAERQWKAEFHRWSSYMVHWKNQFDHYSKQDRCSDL

| Structure (SMILES) | IC50 (Acetylcholinesterase) | inhibition [1] | inhibition at 10 µM [2] | inhibition [3] | IC50 [4] | IC50 [5] |
| --- | --- | --- | --- | --- | --- | --- |
| CCN(CC)Cc1ccc(C=C2Cc3cc(OC)c(OC)cc3C2=O)cc1 | 253 nM | 56% |  |  |  |  |
| CCN(CC)Cc1ccc(/C=C2\Cc3ccccc3C2=O)cc1 | 612 nM |  | 42.7% | 17.8% | 661 nM |  |
| CCN(CC)Cc1ccc(/C=C2\Cc3cc(OC)c(OC)cc3C2=O)cc1 | 63 nM |  | 49.6% |  | 783 nM |  |
| CCN(CC)Cc1ccc(C=C2Cc3cc(OC)ccc3C2=O)cc1 | 505 nM |  | 45.1% |  |  |  |
| CCN(CC)Cc1ccc(/C=C2\Cc3ccc(OC)cc3C2=O)cc1 | 964 nM |  |  | 14.3% | 91 nM | 95 nM |
| CCN(CC)Cc1ccc(C=C2Cc3ccc(OC)cc3C2=O)cc1 | 1100 nM | 37.7% |  | 8.3% |  |  |
| O=c1c(O)c(-c2ccc(O)c(O)c2)oc2cc(O)cc(O)c12 |  | 84.4% |  |  |  |  |
| CCN(CC)Cc1ccc(/C=C2/Cc3cc(OC)ccc3C2=O)cc1 | 1150 nM | 23.4% | 28.2% |  | 1940 nM |  |
| CCN(CC)Cc1ccc(/C=C2\Cc3cc(OC)ccc3C2=O)cc1 | 113 nM | 7.4% | 32.8% |  |  |  |
| CCN(CC)Cc1ccc(C=C2Cc3ccccc3C2=O)cc1 | 1310 nM | 8.1% |  | 16.2% |  |  |
